According to patent publication US12161647B2, “Treating hearing loss” (Massachusetts Eye and Ear Infirmary, priority 2012, dated 2024):

Key:
[1] = system: neonatal organ of Corti explants; test: Neonatal organ of Corti explant culture, hair cell number; format: cell-based, mouse
Description: Cochleae of 3-d-postnatal C57BL/6 or Mos-iCsp3; Pou4f3-Cre double transgenic mice of both sexes were dissected in Hanks solution (Invitrogen). To obtain a flat cochlear surface preparation, the spiral ganglion, Reissner's membrane, and the most basal cochlear segment were removed. Explants were plated onto 4 well plates (Greiner Bio-One) coated with poly-L-ornithine (0.01%, Sigma) and laminin (50 μg/ml, Becton Dickinson). Cochlear explants were cultured in DMEM (Invitrogen) with 10% fetal bovine serum. All cultures were maintained in a 5% CO2/20% O2-humidified incubator (Forma Scientific).
For explants, the organs of Corti were fixed for 15 min with 4% paraformaldehyde in PBS. […] Primary antibodies were detected with secondary antibodies conjugated with Alexa 488 and 647 (Molecular Probes). The samples were stained with rhodamine phalloidin (Invitrogen) for 15 min and viewed by confocal fluorescence microscopy (TCS SP5, Leica).
Cell counting for spheres was performed with MetaMorph software. The cell number was determined from DAPI- or Hoechst-positive nuclei. […] For explants, inner hair cells, outer hair cells, and supporting cells in the outer hair cell region were counted on cochlear whole mounts. […] High-power images of the full-length cochlea or cochlear explant cultures were assembled and analyzed in PhotoShop CS4 (Adobe). […] Density (cells per 100 μm) was then calculated for each segment. […]

noise-damaged cochlea [2] = test: ABR after systemic LY411575 in noise-damaged mice; format: in vivo, mouse
Description: (§1) 4-week-old mice were exposed free-field, awake and unrestrained, in a small reverberant chamber (22). Acoustic trauma was produced by a 2 h exposure to an 8-16 kHz octave band noise presented at 116 dB SPL. The exposure stimulus was generated by a custom white-noise source, filtered (Brickwall Filter with a 60 dB/octave slope), amplified (Crown power amplifier), and delivered (JBL compression driver) through an exponential horn fitted securely to a hole in the top of a reverberant box.
[…] Hearing was measured by ABR at 1 d before, 2 d, 1, 2 week, 1, 2 and 3 months after noise exposure.
Mice were anesthetized with ketamine (100 mg/kg i.p.) and xylazine (20 mg/kg i.p.). Needle electrodes were inserted at vertex and pinna, with a ground near the tail. ABRs were evoked with 5-ms tone pips (0.5-ms rise-fall with a cos^2 onset envelope delivered at 35/s). The response was amplified, filtered and averaged in a LabVIEW-driven data-acquisition system. Sound level was raised in 5 dB steps from ≥10 dB below threshold <80 dB SPL. At each sound level, 1024 responses were averaged (with stimulus polarity alternated), using an “artifact reject,” whereby response waveforms were discarded when peak-to-peak response amplitude exceeded 15 μV. […] For amplitude versus level functions, the wave I peak was identified by visual inspection at each sound level and the peak-to-peak amplitude computed.

noise-damaged cochlea [3] = test: Hair cell number after systemic LY411575 in noise-damaged mice; format: in vivo, mouse; conditions: oral 50 mg/kg for 5 d
Description: as §1
For systemic administration, LY411575 (50 mg/kg) dissolved in 0.5% (wt/vol) methylcellulose (WAKO) was injected orally once daily for 5 consecutive d. Hearing was measured by ABR at 1 d before, 2 d, 1, 2 week, 1, 2 and 3 months after noise exposure.
For collection of mature mouse cochleae, after being deeply anesthetized with ketamine and xylazine, the mice were transcardially perfused with 0.01 M phosphate buffer (pH 7.4) containing 8.6% sucrose, followed by fixative consisting of freshly depolymerized 4% paraformaldehyde in 0.1 M phosphate buffer (pH 7.4). […] Primary antibodies were detected with secondary antibodies conjugated with Alexa 488, 568, and 647 (Molecular Probes) and viewed by confocal fluorescence microscopy (TCS SP5, Leica). […]
Cell counting for spheres was performed with MetaMorph software. The cell number was determined from DAPI- or Hoechst-positive nuclei. […]

## C[C@H](NC(=O)[C@@H](O)c1cc(F)cc(F)c1)C(=O)N[C@@H]1C(=O)N(C)c2ccccc2-c2ccccc21 [LY411575, N-2((2S)-2-(3,5-difluorophenyl)-2-hydroxyethanoyl)-N1-((7S)-5-methyl-6-oxo-6,7-dihydro-5H-dibenzo[b,d]azepin-7-yl)-l-alaninamide]
[1]; LY411575 1 μM, 72 h, p<0.05
  increase in number of myosin VIIa-positive cells in the outer hair cell region compared to the control: 30 cells/100 μm
[1]; apex, mid-apex and mid-base, cultured 3 d
  number of hair cells in wild-type organ of Corti (Wt): Increased
noise-damaged cochlea [2]; 10 mg/kg body weight
  therapeutic benefit at lower dose: no therapeutic benefit
noise-damaged cochlea [2]; oral 50 mg/kg for 5 d, 4, 8 and 16 kHz
  noise-induced ABR threshold shift: decreased
noise-damaged cochlea [3]
  outer hair cell numbers: increased
